The source of these data is ChEMBL document CHEMBL1208752, “Selective delivery of 2-hydroxy APA to Trypanosoma brucei using the melamine motif” (Bioorg Med Chem Lett, 2010).

Assay [1] concerns Trypanosoma brucei brucei. The assay can be described thus: Antitrypanosomal activity against tbAT1 deficient Trypanosoma brucei brucei at 100 uM after 2 days by alamar blue assay. The assay is classed as functional, organism-based.
For assay [2], the system named is Trypanosoma brucei brucei. Description: Antitrypanosomal activity against wild type Trypanosoma brucei brucei expressing P2 transporter at 100 uM after 2 days by alamar blue assay. It is filed as functional, organism-based. On the technique in general: Resazurin is reduced to fluorescent resorufin, in cell work by metabolically active cells.

`CC(Nc1nc(N)nc(N)n1)C(=O)OC(CN)CON.Cl.Cl` (centres undefined): the EC50 entry in assay [1] is listed as “Not Active”.

Take `Cl.Cl.NCC(O)CON` (centres undefined): the EC50 entry in assay [2] was “Not Active”. For the compound `Cl.Cl.NCC(CON)OC(=O)CCNc1nc(N)nc(N)n1` (centres undefined), the EC50 result in assay [1] is given as “Not Active”. The same measure, in the same setting: the same measure for `Cl.Cl.NCC(CON)OC(=O)CNc1nc(N)nc(N)n1` (centres undefined): “Not Active”.
